Results reported in publication PMC2765816 (European journal of pharmacology, 2008).

Columns and labels:
adenosine A2B receptor = target: T1, adenosine A2B receptor (Homo sapiens, UniProt P29275); details: ref Hide et al., 1992; cited from earlier work
T1 sequence (P29275 1-332): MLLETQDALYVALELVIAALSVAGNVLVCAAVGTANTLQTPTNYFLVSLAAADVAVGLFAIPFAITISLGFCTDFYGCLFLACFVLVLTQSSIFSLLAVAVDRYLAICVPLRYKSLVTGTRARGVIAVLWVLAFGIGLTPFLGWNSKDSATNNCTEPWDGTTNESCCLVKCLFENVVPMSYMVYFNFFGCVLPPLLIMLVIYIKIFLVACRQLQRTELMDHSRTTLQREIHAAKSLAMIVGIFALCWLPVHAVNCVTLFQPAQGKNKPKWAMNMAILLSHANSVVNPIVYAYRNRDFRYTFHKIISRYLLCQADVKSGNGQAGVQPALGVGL

[1] = target: adenosine A2A-CFP receptor (Homo sapiens, UniProt P29274); details: 0.45 M; agonist 2 μM NECA
adenosine A2A-CFP receptor, sequence (P29274 1-363): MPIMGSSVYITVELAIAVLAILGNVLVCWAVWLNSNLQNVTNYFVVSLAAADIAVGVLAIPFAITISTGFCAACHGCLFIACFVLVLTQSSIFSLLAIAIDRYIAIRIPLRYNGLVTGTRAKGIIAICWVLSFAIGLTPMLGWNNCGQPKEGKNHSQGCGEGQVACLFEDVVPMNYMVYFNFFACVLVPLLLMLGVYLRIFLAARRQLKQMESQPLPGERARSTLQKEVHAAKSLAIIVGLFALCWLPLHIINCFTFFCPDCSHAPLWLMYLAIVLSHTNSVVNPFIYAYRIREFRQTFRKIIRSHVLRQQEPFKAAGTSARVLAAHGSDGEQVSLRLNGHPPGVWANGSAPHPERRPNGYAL

CCNC(=O)[C@H]1O[C@@H](n2cnc3c(N)nc(NCCc4ccc(CCC(=O)NCCN)cc4)nc32)[C@H](O)[C@@H]1O [APEC, 2-[4-(2-aminoethylaminocarbonylethyl)phenylethylamino]-5′-N-ethylcarboxamidoadenosine]
activity at the adenosine A2B receptor (adenosine A2B receptor): inactive

OC[C@H]1O[C@@](CO)(O[C@H]2O[C@H](CO)[C@@H](O)[C@H](O)[C@H]2O)[C@@H](O)[C@@H]1O [hyperosmolar sucrose, sucrose]
effect on agonist-induced internalization of A2A-CFP [1]: prevented agonist-induced internalization
